Test results from patent US11376264B2, “Use of bromodomain-containing protein 9 antagonists in combination with vitamin D receptor agonists in diabetes treatment” (Salk Institute for Biological Studies, priority 2017, dated 2022).
“Also recorded” adds a separate entry of the source.

Assays:
[1] = In vivo pharmacokinetic study of iBRD9 (plasma, LC-MS); conditions: FIG. 12J, n=3
Experimental: An internal standard of d4-succinate was added to all samples prior to analysis. […] of methanol containing 100 pmol of d4-succinate was added to 50 uL plasma samples and vortexed for 1 min. The samples were then centrifuged at 17.000× g for 10 min at 4° C. After drying the supernatant via SpeedVac, the extract was dissolved in H2O ([…]) and […] was subjected to liquid chromatography mass spectrometry (LC-MS). Compound i-BRD9 was measured using a TSQ Quantiva mass spectrometer (Thermo) and Dionex Ultimate 3000 (Thermo) fitted with a Gemini C18 HPLC column ([…]; 4.6 mm×50 mm, Phenomenex). LC solvents used were: solvent A, 0.1% formic acid in water; solvent B, 0.1% formic acid in acetonitrile. Separations took place over 16 min with a flow rate of 0.4 mL/min and consisted of the following steps: 5 to 50% solvent B over 9 min, 50 to 80% B over 1 min, 80% B for 1 min, 80 to 5% B over 0.1 min, and 5% B for 5 min. MS analyses were performed using electrospray ionization (ESI) in positive ion mode for i-BRD9 and negative ion mode for d4-succinate. Positive and negative mode source parameters were as follows: spray voltage 3.5 kV, ion transfer tube temperature of 325° C., and a vaporizer temperature of 275° C. Multiple reaction monitoring transitions for target compound and internal standard are shown in (Table 2).

[2] = test system: mouse islets; experiment: Isolated mouse islets cultured with IL1β ± Cal (RNA-Seq); format: cell-based
Experimental: Total RNA was isolated from tissue or cell pellets using the RNA mini kit (Qiagen). Sequencing libraries were prepared from 100-500 ng total RNA using the TruSeq RNA Sample Preparation Kit v2 (Illumina) according to the manufacturer's protocol. Briefly, mRNA was purified, fragmented, and used for first-, then second-strand cDNA synthesis followed by adenylation of 3′ ends. Samples were ligated to unique adapters and subjected to PCR amplification. Libraries were then validated using the 2100 BioAnalyzer (Agilent), normalized, and pooled for sequencing. RNA-Seq libraries prepared from two biological replicates for each experimental condition were sequenced on the Illumina HiSeq 2000 using bar-coded multiplexing and a 100 bp read length.
Image analysis and base calling were performed with Illumina CASAVA-1.8.2. This yielded a median of 29.9M usable reads per sample. Short read sequences were mapped to a UCSC mm9 reference sequence using the RNA-seq aligner STAR (Dobin et al., 2013). Known splice junctions from mm9 were supplied to the aligner and de novo junction discovery was also permitted. Differential gene expression analysis, statistical testing and annotation were performed using Cuffdiff 2 (Trapnell et al., 2013). Transcript expression was calculated as gene-level relative abundance in fragments per kilobase of exon model per million mapped fragments and employed correction for transcript abundance bias (Roberts et al., 2011). RNA-Seq results for genes of interest were also explored visually using the UCSC Genome Browser.
Mouse pancreatic islets were isolated as previously described (Yoshihara et al., 2010, Nat. Commun 1:127) with slight modification. Briefly, 0.5 mg/ml collagenase P (Roche REF 1213873001, diluted in HBSS buffer, GIBCO, 14170-112) was injected through the common bile duct, and the perfused pancreas dissected and incubated at 37° C. for 21 min. Digested exocrine cells and intact islets were separated via centrifugation (900×g for 15 min) over Histopaque-1077 (Sigma, H8889), and intact islets were manually selected. […]

SMILES | maximum plasma iBRD9 concentration [1] | IL1β-induced damage / gene expression changes in islets ([2]; 48 or 96 hours) | number of genes induced by IL1β and rescued ([2]; 96 hours) | number of genes suppressed by IL1β and rescued ([2]; 96 hours)
CCn1cc(-c2cccc(C(F)(F)F)c2)c2sc(C(=N)NC3CCS(=O)(=O)CC3)cc2c1=O [iBRD9] | ~750 nM |  |  | 
C=C1/C(=C\C=C2/CCC[C@]3(C)[C@@H]([C@H](C)/C=C/[C@@H](O)C4CC4)CC[C@@H]23)C[C@@H](O)C[C@@H]1O [Cal, calcipotriol] |  | protected islets from IL1β-induced damage; also recorded: partially rescued | 332 genes | 169 genes
